Read-outs that look alike come from different tables or passages of the source.
Tests used:
[1] = biological target: Marinobacter sp. msLacBP6 variant V192C, SEQ ID NO: 40, Acrylodan conjugate; assay: Fluorescence titration of conjugate; type: binding; conditions: read-out: trueKd (lactate); monochromatic, 500 nm
[2] = biological target: Marinobacter sp. msLacBP6 variant 187C, P150S, SEQ ID NO: 55, Acrylodan conjugate; assay: Fluorescence titration of conjugate (affinity tuning); type: binding; conditions: read-out: trueKd (lactate); monochromatic, 463 nm
[3] = biological target: Marinobacter sp. msLacBP6 variant 187C, L70I, SEQ ID NO: 52, Badan conjugate; assay: as above; type: binding; conditions: λ1 460, λ2 537 nm
[4] = biological target: Marinobacter sp. msLacBP6 variant W11C, Acrylodan conjugate; assay: Fluorescence titration of conjugate; type: binding; conditions: λ1 473, λ2 520 nm
[5] = biological target: T1, Flexistipes sinusarabici fsLacBP13 variant W188C, SEQ ID NO: 47, Badan conjugate (Flexistipes sinusarabici, UniProt F8E724, W211C); assay: Fluorescence titration of conjugate; type: binding
T1 construct: Badan on Cys188
T1 sequence (F8E724 entry or part of it W211C): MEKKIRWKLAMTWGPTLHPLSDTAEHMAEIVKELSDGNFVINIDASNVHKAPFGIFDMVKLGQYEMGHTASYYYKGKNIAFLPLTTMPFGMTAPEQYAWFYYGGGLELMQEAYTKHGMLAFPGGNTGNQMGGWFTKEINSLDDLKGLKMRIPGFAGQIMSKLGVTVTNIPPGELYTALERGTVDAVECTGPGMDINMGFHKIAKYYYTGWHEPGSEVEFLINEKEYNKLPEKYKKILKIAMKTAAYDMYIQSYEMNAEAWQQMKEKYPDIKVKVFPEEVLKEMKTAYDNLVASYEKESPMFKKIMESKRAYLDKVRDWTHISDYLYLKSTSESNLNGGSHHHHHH

[6] = biological target: T2, Flexistipes sinusarabici fsLacBP13 variant W188C, SEQ ID NO: 47, Acrylodan conjugate (Flexistipes sinusarabici, UniProt F8E724, W211C); assay: Fluorescence titration of conjugate; type: binding
T2 construct: Acrylodan on Cys188
T2 sequence (F8E724 entry or part of it W211C): as above

[7] = biological target: Marinobacter sp. msLacBP6 variant 187C, L70M, SEQ ID NO: 53, Acrylodan conjugate; assay: Fluorescence titration of conjugate (affinity tuning); type: binding; conditions: λ1 455, λ2 479 nm
[8] = biological target: T3, Flexistipes sinusarabici fsLacBP13, YP_004603455.1, SEQ ID NO: 13 (expressed form SEQ ID NO: 27) (Flexistipes sinusarabici, UniProt F8E724); assay: Lactate binding by thermal stability shift and labeled conjugate; conditions: thermostability vs ligand concentration; fluorescence response of labeled conjugate
T3 construct: thermal shift
T3 sequence (F8E724 entry or part of it): as the sequence (F8E724 entry or part of it W211C) above, with C188W counted along it
Description: (§1) These experiments comprise four successive steps: • 1. Synthetic gene construction. The amino acid sequence of the homology leads are back translated into DNA sequences. These are optimized for directing heterologous cytoplasmic expression of the protein homologues in E. coli, using either the OrfOpt or OrfMorph programs. These programs predict mRNA sequences that direct high-level protein expression in E. coli. The predicted gene sequences are assembled de novo from synthetic oligonucleotides. • 2. Heterologous protein expression of the homologues in E. coli. Plasmids carrying the synthetic expression constructs (see above) were transformed into KRX competent cells (Promega). Protein production was induced in bacterial cultures of these cultures. • 3. Purification of successfully expressed protein using immobilized metal affinity chromatography. • 4.
(§2) The thermal stability of purified LacBP candidate proteins was determined by measuring the temperature-dependence of the fluorescence signal of an extrinsically added dye, SYPRO, using a Roche LightCycler (Layton and Hellinga, 2010, Biochemistry, 49, 10831-41). The total fluorescence intensity, S, is given by S=βFfF+βUfU 11 where fF and fU are the fractions of protein in the folded and unfolded states, respectively, and βF and βUthe fluorescence baselines of these two states. To get the fractions of the two states, we have
(§3) To obtain the temperature dependence of the binding reaction, the Kd values of all the individually determined isotherms were fit the Gibbs-Hemholtz equation (Layton and Hellinga, 2010, Biochemistry, 49, 10831-41): […]

[9] = system: Anaeromyxobacter dehalogenans adLacBP9, YP_466099.1, SEQ ID NO: 9 (expressed form SEQ ID NO: 23); assay: as above; conditions: thermostability vs ligand concentration; fluorescence response of labeled conjugate
Description: as §1, §2, §3

[10] = biological target: Pseudomonas stuztzeri psLacBP11, YP_006522676.1, SEQ ID NO: 11 (expressed form SEQ ID NO: 25) (Stutzerimonas nitrititolerans, UniProt A0ABX9V4I2); assay: as above; conditions: thermostability vs ligand concentration; fluorescence response of labeled conjugate
Pseudomonas stuztzeri psLacBP11, YP_006522676.1, SEQ ID NO: 11 (expressed form SEQ ID NO: 25), sequence (A0ABX9V4I2 entry or part of it): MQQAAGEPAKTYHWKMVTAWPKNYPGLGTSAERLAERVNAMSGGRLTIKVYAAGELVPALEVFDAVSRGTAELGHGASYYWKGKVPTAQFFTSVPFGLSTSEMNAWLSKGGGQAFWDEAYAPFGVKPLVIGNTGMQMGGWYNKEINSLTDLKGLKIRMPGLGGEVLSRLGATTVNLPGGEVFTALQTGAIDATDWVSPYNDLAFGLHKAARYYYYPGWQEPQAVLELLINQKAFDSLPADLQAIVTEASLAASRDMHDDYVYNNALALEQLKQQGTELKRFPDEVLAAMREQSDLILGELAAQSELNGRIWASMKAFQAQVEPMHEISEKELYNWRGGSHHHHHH
Description: as §1, §2, §3

[11] = biological target: Marinobacter sp. msLacBP6 variant 187C, L70M, SEQ ID NO: 53, Badan conjugate; assay: Fluorescence titration of conjugate (affinity tuning); type: binding; conditions: λ1 459, λ2 539 nm
[12] = biological target: Marinobacter sp. msLacBP6 variant 187C, F68L, SEQ ID NO: 49, Acrylodan conjugate; assay: as above; type: binding; conditions: λ1 459, λ2 516 nm
[13] = biological target: Marinobacter sp. msLacBP6 variant 187C, D220E, SEQ ID NO: 56, Badan conjugate; assay: as above; type: binding; conditions: read-out: trueKd (lactate); monochromatic, 532 nm
[14] = biological target: Marinobacter sp. msLacBP6 variant 187C, 70M, SEQ ID NO: 53, Acrylodan conjugate, immobilized on Ni-NTA beads; assay: Lactate titration of immobilized conjugate on magnetic Ni-NTA beads; conditions: read-out: trueKd (lactate), λ1 452, λ2 525 nm
[15] = biological target: T4, Pseudomonas stuztzeri psLacBP11 variant W195C, SEQ ID NO: 45, Acrylodan conjugate (Stutzerimonas nitrititolerans, UniProt A0ABX9V4I2, W224C); assay: Fluorescence titration of conjugate; type: binding; conditions: λ1 487, λ2 466 nm
T4 construct: Acrylodan on Cys195
T4 sequence (A0ABX9V4I2 entry or part of it W224C): as the sequence (A0ABX9V4I2 entry or part of it) above, with W195C counted along it

[16] = biological target: Marinobacter sp. msLacBP6 variant 187C, P150A, SEQ ID NO: 54, Acrylodan conjugate; assay: Fluorescence titration of conjugate (affinity tuning); type: binding; conditions: read-out: trueKd (lactate); monochromatic, 463 nm
[17] = biological target: Marinobacter sp. msLacBP6 variant 187C, F68M, SEQ ID NO: 50, Badan conjugate; assay: as above; type: binding; conditions: λ1 464, λ2 527 nm
[18] = biological target: Marinobacter sp. msLacBP6 variant 187C, F68M, SEQ ID NO: 50, Acrylodan conjugate; assay: as above; type: binding; conditions: λ1 459, λ2 516 nm

Structure (SMILES): C[C@H](O)C(=O)O [lactate]
- Kd [1]: 20 µM
- Kd [2]: 24000 µM
- Kd ([3]; read-out: appKd (lactate)): 300 µM
- Kd ([3]; read-out: trueKd (lactate)): 200 µM
- Kd ([4]; read-out: appKd (lactate)): 400 µM
- Kd ([4]; read-out: trueKd (lactate)): 400 µM
- Kd [5]: > 100000 µM
- Kd ([5]; read-out: trueKd (lactate), λ1 483, λ2 466 nm): > 100000 µM
- Kd [6]: > 100000 µM
- Kd ([6]; read-out: trueKd (lactate), λ1 482, λ2 450 nm): > 100000 µM
- Kd ([7]; read-out: appKd (lactate)): 1600 µM
- Kd ([7]; read-out: trueKd (lactate)): 1200 µM
- Lactate Binding [8]: weak^f,g
- Lactate Binding [9]: weak^f,g
- Lactate Binding [10]: weak^f,g
- Kd ([11]; read-out: appKd (lactate)): 1100 µM
- Kd ([11]; read-out: trueKd (lactate)): 700 µM
- Kd ([12]; read-out: appKd (lactate)): 600 µM
- Kd ([12]; read-out: trueKd (lactate)): 500 µM
- Kd [13]: 3100 µM
- Kd [14]: 1200 µM
- Kd ([15]; read-out: appKd (lactate)): > 100000 µM
- Kd ([15]; read-out: trueKd (lactate)): > 100000 µM
- Kd [16]: 6800 µM
- Kd ([17]; read-out: appKd (lactate)): 500 µM
- Kd ([17]; read-out: trueKd (lactate)): 600 µM
- Kd ([18]; read-out: appKd (lactate)): 700 µM
- Kd ([18]; read-out: trueKd (lactate)): 500 µM

— patent publication US11099176B2 (priority 2015, dated 2021)
